We go through five compounds from patent USRE50528E1, “Compounds and compositions for modulating EGFR mutant kinase activities” (Yuhan Corporation, priority 2014, dated 2025).

In one test the test system is H2073 (EGFR wildtype). The test can be described thus: Cell viability assay, H2073.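 Further: NSCLC cell line whose survival relies on wildtype EGFR, treated with serially diluted compound, cytotoxic effect judged from remaining cell viability.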 The settings on record: NCI-H2073; cellular potency; 72-hour incubation; ATPLite. It is filed as cell-based. A general note: In ATP-based viability assays light output follows the ATP content of the culture.
Test [1] concerns H1975 (EGFR L858R/T790M mutant). The test can be described thus: Cell viability assay, H1975.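 On all read-outs here: NSCLC cells whose survival relies on EGFR L858R/T790M, exposed 72 h to serially diluted compound, ATP-based viability readout, with the H2073 line (wildtype EGFR dependent) as wildtype comparator.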 Format: cell-based. The conditions noted are these: for IC50: Homo sapiens, NCI-H1975, cellular potency, 72-hour incubation, ATPLite, read-out: EGFR Mutants H1975; for Selectivity over wildtype, Wildtype vs mutant H2073/H1975 (fold): cellular potency ratio.
The next test addresses T1, SYK (Homo sapiens, UniProt P43405).
T1 construct: Purified human, full-length SYK, KDR; purchased Carna Biosciences
As to the kind of experiment: Kinase inhibition assay, SYK.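 Further: purified full-length human SYK pre-incubated 30 min with compound, then ULight-TK peptide phosphorylation for 1 h, detected with Europium-labeled antibody in Lance buffer.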 The conditions noted are these: biochemical potency. Format: biochemical.

The target in another test is T2, EGFR mutant T790M (Homo sapiens, UniProt P00533, T790M).
T2 construct: truncated human JAK3, EGFR mutants such as del E746-A750; purchased Carna Biosciences
As to the kind of experiment: Kinase inhibition assay, EGFR mutant T790M.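 Further: truncated human EGFR mutant enzyme preincubated two hours with compound, then ATP plus ULight-PolyGT peptide for one hour, Europium-labeled antibody LANCE detection, IC50.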 The settings on record: biochemical potency.

For another test, the target named is T3, EGFR mutant L858R (Homo sapiens, UniProt P00533, L858R).
T3 construct: truncated human JAK3, EGFR mutants such as del E746-A750; purchased Carna Biosciences
The test can be described thus: Kinase inhibition assay, EGFR L858R.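 Further: truncated human EGFR L858R kinase with compound preincubation, ULight-PolyGT peptide phosphorylation read by Europium-antibody Lance detection, IC50.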 The settings on record: read-out: EGFR mutants L858R. It is filed as biochemical.

The target of another test is T4, EGFR mutant L858R/T790M (Homo sapiens, UniProt P00533, L858R/T790M).
T4 construct: truncated human JAK3, EGFR mutants such as del E746-A750; purchased Carna Biosciences
As to the kind of experiment: Kinase inhibition assay, EGFR L858R/T790M.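 Further: truncated human enzyme preincubated two hours with compound, then one hour with one millimolar ATP and ULight-PolyGT peptide, Europium-labeled antibody detection, IC50.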 It is filed as biochemical. The settings on record: read-out: EGFR mutants L858R/T790M.

Another test addresses T5, EGFR mutant Del19/T790M (Homo sapiens, UniProt P00533, DEL746-750/T790M).
T5 construct: truncated human JAK3, EGFR mutants such as del E746-A750; purchased Carna Biosciences
The test can be described thus: Kinase inhibition assay, EGFR del E746-A750/T790M. It is filed as biochemical. The conditions noted are these: read-out: EGFR mutants Del19/T790M.

The target in test [2] is T6, EGFR mutant Del19 (E746-A750) (Homo sapiens, UniProt P00533, DEL746-750).
T6 construct: truncated human JAK3, EGFR mutants such as del E746-A750; purchased Carna Biosciences
The test can be described thus: Kinase inhibition assay, EGFR del E746-A750.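 Further: truncated human EGFR mutant kinase, two-hour preincubation with compound, then one-hour reaction with ATP and ULight-PolyGT peptide, LANCE Europium-antibody phosphorylation readout, IC50.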 It is filed as biochemical. The settings on record: read-out: EGFR mutants Del19 (E746-A750).

The test system of test [3] is PC9 (EGFR del E746-A750 mutant). As to the kind of experiment: Cell viability assay, PC9.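 On all read-outs here: NSCLC PC9 cells, whose viability relies on EGFR del E746-A750, exposed to serially diluted compound for 72 h at 37 °C, ATPLite read-out, IC50, H2073 as EGFR wildtype line.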 Format: cell-based. The conditions noted are these: for Selectivity over wildtype, Wildtype vs mutant H2073/PC9 (fold): cellular potency ratio; for IC50: cellular potency, 72-hour incubation, ATPLite, read-out: EGFR Mutants PC9.

T4 sequence (P00533 669-1210 T790M/L858R limits assumed): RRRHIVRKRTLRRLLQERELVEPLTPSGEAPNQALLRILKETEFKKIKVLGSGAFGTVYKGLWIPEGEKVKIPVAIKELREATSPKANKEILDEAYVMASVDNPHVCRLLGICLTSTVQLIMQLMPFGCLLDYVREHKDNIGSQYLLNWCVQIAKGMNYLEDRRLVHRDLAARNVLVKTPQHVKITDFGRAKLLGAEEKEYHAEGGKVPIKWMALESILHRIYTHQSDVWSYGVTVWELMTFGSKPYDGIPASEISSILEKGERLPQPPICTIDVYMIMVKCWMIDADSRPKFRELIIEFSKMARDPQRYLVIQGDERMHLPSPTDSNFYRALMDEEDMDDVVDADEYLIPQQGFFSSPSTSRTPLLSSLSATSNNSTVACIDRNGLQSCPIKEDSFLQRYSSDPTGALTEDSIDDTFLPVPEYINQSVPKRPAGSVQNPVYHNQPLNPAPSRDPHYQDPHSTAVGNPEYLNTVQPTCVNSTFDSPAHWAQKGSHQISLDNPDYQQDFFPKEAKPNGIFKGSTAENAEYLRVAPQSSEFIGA
T3 sequence (P00533 669-1210 L858R limits assumed): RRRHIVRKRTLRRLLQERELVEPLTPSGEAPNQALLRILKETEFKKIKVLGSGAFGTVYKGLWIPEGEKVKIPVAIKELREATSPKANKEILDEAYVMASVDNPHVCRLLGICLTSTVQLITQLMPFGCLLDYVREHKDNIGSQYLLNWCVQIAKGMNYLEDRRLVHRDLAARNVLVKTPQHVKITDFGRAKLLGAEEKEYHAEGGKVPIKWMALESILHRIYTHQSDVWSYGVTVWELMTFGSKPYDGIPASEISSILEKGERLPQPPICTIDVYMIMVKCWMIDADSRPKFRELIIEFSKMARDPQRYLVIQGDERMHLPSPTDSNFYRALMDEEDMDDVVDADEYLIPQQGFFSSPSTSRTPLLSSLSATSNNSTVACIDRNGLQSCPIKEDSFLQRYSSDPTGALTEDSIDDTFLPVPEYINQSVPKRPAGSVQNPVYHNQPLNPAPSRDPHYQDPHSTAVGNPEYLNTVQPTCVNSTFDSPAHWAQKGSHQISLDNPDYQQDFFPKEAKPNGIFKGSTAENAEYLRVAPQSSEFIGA
T5 sequence (P00533 with tags, fused parts or gaps DEL746-750/T790M limits assumed): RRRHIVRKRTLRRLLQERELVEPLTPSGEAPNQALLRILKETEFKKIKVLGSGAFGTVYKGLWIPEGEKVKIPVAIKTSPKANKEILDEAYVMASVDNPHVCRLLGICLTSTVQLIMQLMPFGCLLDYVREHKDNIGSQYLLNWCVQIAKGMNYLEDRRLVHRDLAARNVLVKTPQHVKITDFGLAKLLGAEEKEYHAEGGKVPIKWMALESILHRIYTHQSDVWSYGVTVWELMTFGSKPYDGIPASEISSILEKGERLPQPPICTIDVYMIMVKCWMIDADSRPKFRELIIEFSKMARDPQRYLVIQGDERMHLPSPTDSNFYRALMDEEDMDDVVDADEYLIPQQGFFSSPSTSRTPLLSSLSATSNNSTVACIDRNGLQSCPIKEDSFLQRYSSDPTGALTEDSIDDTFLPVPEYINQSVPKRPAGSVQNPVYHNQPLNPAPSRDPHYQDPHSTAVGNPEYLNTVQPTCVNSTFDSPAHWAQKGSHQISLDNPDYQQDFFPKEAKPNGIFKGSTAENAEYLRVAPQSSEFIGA
T2 sequence (P00533 669-1210 T790M limits assumed): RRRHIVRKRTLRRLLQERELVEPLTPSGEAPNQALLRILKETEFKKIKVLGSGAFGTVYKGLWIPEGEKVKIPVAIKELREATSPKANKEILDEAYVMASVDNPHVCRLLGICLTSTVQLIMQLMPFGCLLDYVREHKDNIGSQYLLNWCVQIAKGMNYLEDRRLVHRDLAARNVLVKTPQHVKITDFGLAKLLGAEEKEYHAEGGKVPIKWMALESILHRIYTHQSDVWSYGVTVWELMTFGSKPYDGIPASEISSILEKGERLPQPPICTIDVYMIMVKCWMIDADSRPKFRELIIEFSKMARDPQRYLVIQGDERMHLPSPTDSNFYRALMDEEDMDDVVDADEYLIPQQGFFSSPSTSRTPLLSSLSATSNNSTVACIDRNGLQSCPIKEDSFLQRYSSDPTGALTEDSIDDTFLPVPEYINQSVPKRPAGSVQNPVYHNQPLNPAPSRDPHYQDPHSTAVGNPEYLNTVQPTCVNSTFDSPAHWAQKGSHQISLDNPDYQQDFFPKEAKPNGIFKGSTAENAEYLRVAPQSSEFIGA
T6 sequence (P00533 with tags, fused parts or gaps DEL746-750 limits assumed): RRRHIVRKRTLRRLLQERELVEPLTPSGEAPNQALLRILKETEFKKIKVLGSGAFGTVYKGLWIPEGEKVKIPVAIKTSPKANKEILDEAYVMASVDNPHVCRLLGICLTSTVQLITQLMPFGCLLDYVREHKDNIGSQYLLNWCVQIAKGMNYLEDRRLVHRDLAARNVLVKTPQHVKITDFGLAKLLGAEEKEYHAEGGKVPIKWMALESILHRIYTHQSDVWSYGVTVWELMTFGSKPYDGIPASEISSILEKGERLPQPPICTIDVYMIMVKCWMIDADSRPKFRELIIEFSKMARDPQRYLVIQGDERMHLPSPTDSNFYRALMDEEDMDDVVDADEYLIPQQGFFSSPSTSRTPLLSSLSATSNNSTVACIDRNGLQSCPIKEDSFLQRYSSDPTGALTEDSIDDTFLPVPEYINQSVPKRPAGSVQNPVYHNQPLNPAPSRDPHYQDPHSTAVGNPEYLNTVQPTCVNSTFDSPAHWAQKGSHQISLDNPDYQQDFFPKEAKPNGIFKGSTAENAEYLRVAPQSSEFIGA

In the case of `Cc1cc(C)cc(Nc2nccc(-n3cc(CN4CC(O)C4)c(C)n3)n2)c1` [Compound 147, 1-((1-(2-(3,5-dimethylphenylamino)pyrimidin-4-yl)-3-methyl-1H-pyrazol-4-yl)methyl)azetidin-3-ol, reference compound], the IC50 with H2073 (EGFR wildtype) is > 1000 nM; in test [1] it was > 1000 nM; on SYK, 20 to 200 nM; at EGFR mutant T790M it was > 1000 nM; at EGFR mutant L858R, > 1000 nM; on EGFR mutant L858R/T790M, 201 to 1000 nM. In addition, the IC50 (on EGFR mutant Del19/T790M; in [2]; in [3]) was > 1000 nM throughout. Besides, the “Selectivity over wildtype, Wildtype vs mutant H2073/H1975 (fold)” value (“Selectivity … vs mutant H2073/H1975 (fold)” for short) in test [1] is given as <20 fold. The “Selectivity over wildtype, Wildtype vs mutant H2073/PC9 (fold)” value (“Selectivity … vs mutant H2073/PC9 (fold)” for short) in test [3] is <20 fold.

In the case of `C=CC(=O)Nc1cc(Nc2nccc(-n3cc(CN(C)C)c(C(C)(C)C)n3)n2)c(OC)cc1N(C)CCOC` [Compound 100, N-(5-(4-(3-tert-butyl-4-((dimethylamino)methyl)-1H-pyrazol-1-yl)pyrimidin-2-ylamino)-4-methoxy-2-((2-methoxyethyl)(methyl)amino)phenyl)acrylamide], the IC50 is > 1000 nM with H2073 (EGFR wildtype); 20 to 200 nM in test [1]; > 1000 nM against SYK; 20 to 200 nM against EGFR mutant T790M; < 20 nM on EGFR mutant L858R; < 20 nM at EGFR mutant L858R/T790M. The results for the IC50 (on EGFR mutant Del19/T790M; in [2]; in test [3]) were < 20 nM, < 20 nM and 20 to 200 nM, respectively. In [1], the “Selectivity … vs mutant H2073/H1975 (fold)” value is 101-200 fold. In addition, the “Selectivity … vs mutant H2073/PC9 (fold)” value in test [3] is reported as 101-200 fold.

For the compound `CC/C=C/C(=O)Nc1cc(Nc2nccc(-n3cc(CN(C)C)c(-c4ccccc4)n3)n2)c(OC)cc1N1CCOCC1` [Compound 155, (E)-N-(5-(4-(4-((dimethylamino)methyl)-3-phenyl-1H-pyrazol-1-yl)pyrimidin-2-ylamino)-4-methoxy-2-morpholinophenyl)pent-2-enamide, reference compound], the IC50 with H2073 (EGFR wildtype) was > 1000 nM. Moreover, in test [1], the IC50 was in the range of 201 to 1000 nM and the “Selectivity … vs mutant H2073/H1975 (fold)” value is <20 fold. Moreover, in test [3], the “Selectivity … vs mutant H2073/PC9 (fold)” value is reported as <20 fold and the IC50 was in the range of 201 to 1000 nM.

Turning to `Cc1cc(Nc2nccc(-n3cc(CN4CC(O)C4)c(C)n3)n2)cc(C)c1OCCO` [Compound 149, 1-((1-(2-(4-(2-hydroxyethoxy)-3,5-dimethylphenylamino)pyrimidin-4-yl)-3-methyl-1H-pyrazol-4-yl)methyl)azetidin-3-ol, reference compound], the IC50 was > 1000 nM in the test with H2073 (EGFR wildtype); > 1000 nM in test [1]; > 1000 nM against SYK; > 1000 nM on EGFR mutant T790M; > 1000 nM on EGFR mutant L858R; 201 to 1000 nM at EGFR mutant L858R/T790M. Also, the IC50 (on EGFR mutant Del19/T790M; in test [2]; in [3]) was > 1000 nM in each case. Moreover, in [1], the “Selectivity … vs mutant H2073/H1975 (fold)” value was <20 fold. Moreover, the “Selectivity … vs mutant H2073/PC9 (fold)” value in [3] is given as <20 fold.

As to `CC/C=C\CC(=O)Nc1cc(Nc2nccc(-n3cc(CN(C)C)c(-c4ccccc4)n3)n2)c(OC)cc1N1CCOCC1` [Compound 156, (Z)—N-(5-(4-(4-((dimethylamino)methyl)-3-phenyl-1H-pyrazol-1-yl)pyrimidin-2-ylamino)-4-methoxy-2-morpholinophenyl)hex-3-enamide, reference compound], the IC50 is > 1000 nM in the test on H2073 (EGFR wildtype); > 1000 nM in test [1]; > 1000 nM against SYK; > 1000 nM at EGFR mutant L858R; 201 to 1000 nM at EGFR mutant L858R/T790M; 20 to 200 nM at EGFR mutant Del19/T790M. For the same compound, the IC50 in test [2] and in test [3] was > 1000 nM in each case. The “Selectivity … vs mutant H2073/H1975 (fold)” value in test [1] is recorded as <20 fold. In addition, the “Selectivity … vs mutant H2073/PC9 (fold)” value in test [3] is given as <20 fold.
